From patent US20050221406A1, “Method, composition and device for treating starch related diseases” (priority 2004, published 2005)
Values joined by “and” are separate entries in the source; they are usually repeats but may differ in a detail not shown here. Identical values can stand only once.

Tests used:
[1] = Wilkes and co-workers, cited from earlier work
[2] = 100, 150, and 200 mg NaHCO3/kg body weight; 2-minute maximal exercise bout; cited from earlier work
[3] = running at intensity corresponding to blood lactate of 4 mM, sustained approximately 30 minutes; cited from earlier work
[4] = venous blood; typical time course; cited from earlier work
[5] = four 1-minute maximal sprints at 125%, fifth interval to exhaustion; ingestion prior to exercise; cited from earlier work
[6] = trial (i): 300 mg sodium bicarbonate per kg of body mass, 100 min before exercise; fourteen healthy male volunteers; differs from placebo and no ingestion (P<0.05)
Procedure: A double-blind protocol was used between the (i) and (ii) trials. […] Each condition was repeated so that the volunteers underwent treadmill exercise for six times. 100 minutes before commencing treadmill exercise was allowed after ingesting substances in (i), (ii) and (iii). The volunteers exercised until fatigue. Fourteen of the volunteers completed all the tests.
A double-blind protocol was used between the (i) and (ii) trials. […] Each condition was repeated so that the volunteers underwent treadmill exercise for six times. 100 min before commencing treadmill exercise was allowed after ingesting substances in (i), (ii) and (iii). The volunteers exercised until fatigue.
Results: Fourteen of the volunteers completed all the tests. […] The data were analyzed using a two-way ANOVA with replicates and Tukey tests.

[7] = Blood glucose readings, Type I diabetic patient (Tables 1 and 2); format: in vivo, human; details: Table 1, one week before starting treatment, insulin 30 iu twice a day, daily readings Mon-Sun
Source text: The patient started using the first method of treatment (day and night), then changed to the 3rd method after 2 weeks of treatment, carried n with it continuously.
The patient was on 30 iu of insulin twice a day (60 iu/day) regardless of any reading of their glucose levels. […] After 4 weeks of continuous treatment with P.I.R.T (treatment method number three), their insulin does was reduced to 10 iu in the morning and 20 iu in the evening (30 iu per day).

Molecule | decrease in 800 m running time [1] [s] | distance equivalent of the decrease in 800 m running time ([1]; estimated) | effect on power output [2] | effect on time to exhaustion [3] | time of maximal rise in pH bicarbonate ion concentration after ingestion [4] | time pH bicarbonate ion concentration remains elevated after ingestion [4] | increase of exercise duration of the final bout [5] [%] | average time, treadmill exercise until fatigue [6] [s] | Pre tea BG [7]
O=C([O-])O.[Na+] [sodium bicarbonate] | ~3 | approximately 19 m | no significant increase | no effect | about 1.5 hours | at least 2 hours | 42 | 4.01 | 
insulin |  |  |  |  |  |  |  |  | 23.1 mM and 26.2 mM and 18.4 mM and 22.2 mM and 19.5 mM and 19.9 mM and 17.4 mM
